# Values joined by “and” are separate entries in the source; they are usually repeats but may differ in a detail not shown here. Equal entries are not always repeated. “Also recorded” adds a separate entry of the source. Where two headings read alike, the source gives them in different places.
# Columns and labels:
# [1] = tested on: SA 1199 (Wild‐type, basal); assay: MIC, broth microdilution (CLSI); format: cell-based; details: Staphylococcus aureus
# [2] = Fluorescence intensity measurement of phenazinium derivatives; format: physicochemical; details: 1 µg mL^−1
# Description: A stock solution of synthesized phenazinium compounds (10 mg mL^-1) was prepared in DMSO solvent. […] An aliquot (100 μL) of this working stock was then added to the black flat bottomed, half-area, 96-well microplates (CELLSTAR, Greiner Bio-One, France). The plate was then placed on a fluorescence spectrometer (Tecan, Infinite […], Lyon, France) and scanned for emission spectra (560-800 nm) at a constant excitation […].
# [3] = tested on: Staphylococcus aureus ATCC 25923 (Reference, basal); assay: MIC, broth microdilution (CLSI); format: cell-based; details: ATCC25923
# [4] = In-vitro cytotoxicity test, Neutral Red uptake; format: cell-based, Human; details: human, HaCaT keratinocytes, 24 hours, read-out: Cell viability (% as compared to the negative control), replicates
# Description: (§1) Method: The in-vitro cytotoxicity test assessed cell viability based on Neutral Red uptake, a dye that accumulates in lysosomes and decreases in response to membrane damage. HaCaT keratinocytes were cultured in DMEM with 10% calf serum and incubated at 37°C, 5% CO₂. Cells were seeded in 96-well plates, treated with eight concentrations of the 5a4, and incubated for 24 hours. After washing, cells were exposed to Neutral Red medium for 3 hours, followed by washing and destaining. Optical density (OD540) was measured using a fluorescence reader, and IC50 values were calculated using Phototox Version 2.0, comparing treated wells to untreated controls.^[10]
# [5] = tested on: HaCaT keratinocytes cells; assay: In-vitro cytotoxicity test, Neutral Red uptake; format: cell-based, Human
# Description: as §1
# [6] = tested on: Staphylococcus aureus efflux mutants and clinical strains
# [7] = tested on: SA 1199‐B (norA overexpressing); assay: microbe, parasite or virus in culture; format: cell-based, Staphylococcus aureus; details: from Table 1
# [8] = tested on: HaCaT keratinocytes cells; assay: Micronucleus assay; format: cell-based, Human
# [9] = Solution‐state stability test in MH‐II broth; format: physicochemical; details: 512–1 µg mL^−1, 37 °C for a day, centrifuged
# Description: Before accessing the minimal inhibitory concentration (MIC), each phenazinium derivative was subjected to a solution‐state stability test. For this experiment, each derivative was solubilized in DMSO to achieve a primary stock solution (20 mg mL^−1). This stock was further diluted in MilliQ to achieve a working stock solution (10 mg mL^−1). […] The tubes were placed in an incubator at 37 °C for a day and later centrifuged at 25 000 rpm for 25 min.
# [10] = 0.025 µg/ml, with UVA/visible Irradiation
# [11] = 0.05 µg/ml, with UVA/visible Irradiation
# [12] = 0.1 µg/ml, with UVA/visible Irradiation
# [13] = 0.25 µg/ml, with UVA/visible Irradiation
smiles,measurement,setting,value
CCCCNc1ccc2nc3cc(NCCOC)c(N)cc3[n+](CCC)c2c1 [5a4],MIC,[1],2 µg/mL
same,fluorescence intensity (rank among derivatives),[2],maximum fluorescence intensity
same,MIC,[3],2 µg/mL
same,"viability at 24 h, 0.00025 µg/ml",[4]; 0.00025 µg/ml,> 96%
same,"viability at 24 h, 0.0005 µg/ml",[4]; 0.0005 µg/ml,98.9%
same,"viability at 24 h, 0.001 µg/ml",[4]; 0.001 µg/ml,87.3%
same,"viability at 24 h, 0.025 µg/ml",[4]; 0.025 µg/ml,80%
same,"viability at 24 h, 0.05 µg/ml",[4]; 0.05 µg/ml,66.6%
same,"viability at 24 h, 0.1 µg/ml",[4]; 0.1 µg/ml,57.8%
same,"viability at 24 h, 0.25 µg/ml",[4]; 0.25 µg/ml,43.4%
same,"viability at 24 h, 0.5 µg/ml",[4]; 0.5 µg/ml,37.3%
same,"viability at 24 h, 1 µg/ml",[4]; 1 µg/ml,11.6%
same,"viability at 24 h, 2.5 µg/ml",[4]; 2.5 µg/ml,~7.91%
same,cytotoxicity on HaCaT (in words),[5],dose‐dependent cytotoxicity
same,"Cell viability (% as compared to the negative control), replicates","[5]; 0.00025 µg/ml, 24 hours",98.73% and 100.16% and 98.52%
same,"Cell viability (% as compared to the negative control), replicates","[5]; 0.0005 µg/ml, 24 hours",98.86% and 96.05%
same,"Cell viability (% as compared to the negative control), replicates","[5]; 0.001 µg/ml, 24 hours",86.83% and 87.15%
same,"Cell viability (% as compared to the negative control), replicates","[5]; 0.025 µg/ml, 24 hours",80.96% and 90.16%
same,"Cell viability (% as compared to the negative control), replicates","[5]; 0.05 µg/ml, 24 hours",71.87% and 67.22%
same,"Cell viability (% as compared to the negative control), replicates","[5]; 0.1 µg/ml, 24 hours",60.91% and 61.94%
same,"Cell viability (% as compared to the negative control), replicates","[5]; 0.25 µg/ml, 24 hours",43.67% and 45.37%
same,"Cell viability (% as compared to the negative control), replicates","[5]; 0.5 µg/ml, 24 hours",36.42% and 39.37%
same,"Cell viability (% as compared to the negative control), replicates","[5]; 1 µg/ml, 24 hours",8.29% and 13.84%
same,"Cell viability (% as compared to the negative control), replicates","[5]; 2.5 µg/ml, 24 hours",7.17% and 8.13%
same,IC50,"[5]; Homo sapiens, HaCaT, Neutral Red uptake, 24 hours, read-out: IC50 (HaCaT cell viability)",0.1 to 0.25 µg/mL
same,Efflux detection method 5a4,[6]; strain ATCC25923,Negative
same,Efflux detection method 5a4,[6]; strain ATCC25923_EtBr,Positive
same,Efflux detection method 5a4,[6]; strain BIOS-H1,Negative
same,Efflux detection method 5a4,[6]; strain BIOS-H2,Negative
same,Efflux detection method 5a4,[6]; strain BIOS-H3,Negative
same,Efflux detection method 5a4,[6]; strain BIOS-H5,Negative
same,Efflux detection method 5a4,[6]; strain BIOS-H6,Negative
same,Efflux detection method 5a4,[6]; strain BIOS-H12,Negative
same,Efflux detection method 5a4,[6]; strain BIOS-H13,Negative
same,Efflux detection method 5a4,[6]; strain BIOS-H17,Negative
same,Efflux detection method 5a4,[6]; strain BIOS-H20,Negative
same,Efflux detection method 5a4,[6]; strain BIOS-H21,Negative
same,Efflux detection method 5a4,[6]; strain BIOS-H22,Negative
same,Efflux detection method 5a4,[6]; strain BIOS-H25,Negative
same,Efflux detection method 5a4,[6]; strain BIOS-H28,Negative
same,Efflux detection method 5a4,[6]; strain BIOS-H29,Negative
same,Efflux detection method 5a4,[6]; strain BIOS-H30,Negative
same,Efflux detection method 5a4,[6]; strain BIOS-H32,Negative
same,Efflux detection method 5a4,[6]; strain BIOS-V21,Negative
same,Efflux detection method 5a4,[6]; strain BIOS-V31,Negative
same,Efflux detection method 5a4,[6]; strain BIOS-V60,Negative
same,Efflux detection method 5a4,[6]; strain BIOS-V61,Negative
same,Efflux detection method 5a4,[6]; strain BIOS-V62,Negative
same,Efflux detection method 5a4,[6]; strain BIOS-V74,Negative
same,Efflux detection method 5a4,[6]; strain BIOS-V75,Negative
same,Efflux detection method 5a4,[6]; strain BIOS-V85,Negative
same,Efflux detection method 5a4,[6]; strain BIOS-V118,Negative
same,Efflux detection method 5a4,[6]; strain BIOS-V128,Negative
same,Efflux detection method 5a4,[6]; strain BIOS-V147,Negative
same,Efflux detection method 5a4,[6]; strain BIOS-V151,Negative
same,Efflux detection method 5a4,[6]; strain BIOS-V156,Negative
same,Efflux detection method 5a4,[6]; strain BIOS-V157,Negative
same,Efflux detection method 5a4,[6]; strain BIOS-V158,Negative
same,Efflux detection method 5a4,[6]; strain BIOS-V203,Negative
same,Efflux detection method 5a4,[6]; strain BIOS-V245,Negative
same,Efflux detection method 5a4,[6]; strain BIOS-V250,Negative
same,Efflux detection method 5a4,[6]; strain BIOS-V257,Negative
same,Efflux detection method 5a4,[6]; strain BIOS-V279,Negative
same,Efflux detection method 5a4,[6]; strain BIOS-V295,Negative
same,Efflux detection method 5a4,[6]; strain SA-1199,Negative
same,Efflux detection method 5a4,[6]; strain SA-1199B,Positive
same,Efflux detection method 5a4,[6]; strain SA-K1712,Negative
same,Efflux detection method 5a4,[6]; strain SA-K1748,Positive
same,Efflux detection method 5a4,[6]; strain SA-K1758,Negative
same,Efflux detection method 5a4,[6]; strain SM 1,Positive
same,Efflux detection method 5a4,[6]; strain SM 2,Negative
same,Efflux detection method 5a4,[6]; strain SM 3,Negative
same,Efflux detection method 5a4,[6]; strain SM 4,Negative
same,Efflux detection method 5a4,[6]; strain SM 5,Negative
same,Efflux detection method 5a4,[6]; strain SM 6,Negative
same,Efflux detection method 5a4,[6]; strain SM 7,Negative
same,Efflux detection method 5a4,[6]; strain SM 8,Negative
same,Efflux detection method 5a4,S. epidermidis strains; […],Negative
same,Efflux detection method 5a4,S. epidermidis strains; strain ATCC12228,Negative
same,Efflux detection method 5a4,S. epidermidis strains; strain ATCC12228_EtBr,Positive
same,Efflux detection method 5a4,S. epidermidis strains; strain BIOS-V24,Negative
same,Efflux detection method 5a4,S. epidermidis strains; strain BIOS-V282,Positive
same,"MIC difference between NorA wild‐type, overexpressing and deleted mutants",[7],fourfold or greater difference
same,genotoxicity (in words),[8],no clear genotoxicity
same,% PI (Proliferative Index),[8]; [10],99.2%
same,MNC (micronucleated cells),[8]; [10],"11 ± 1.4 per 1,000"
same,% PI (Proliferative Index),"[8]; 0.025 µg/ml, without S9 mix",99.8%
same,MNC (micronucleated cells),"[8]; 0.025 µg/ml, without S9 mix","9 ± 1.4 per 1,000"
same,% PI (Proliferative Index),[8]; [11],94.6%
same,MNC (micronucleated cells),[8]; [11],"9 ± 2.1 per 1,000"
same,% PI (Proliferative Index),"[8]; 0.05 µg/ml, without S9 mix",88.2%
same,MNC (micronucleated cells),"[8]; 0.05 µg/ml, without S9 mix","8.5 ± 0.7 per 1,000"
same,% PI (Proliferative Index),[8]; [12],92.1%
same,MNC (micronucleated cells),[8]; [12],"9.5 ± 0.7 per 1,000"
same,% PI (Proliferative Index),"[8]; 0.1 µg/ml, without S9 mix",78.5%
same,MNC (micronucleated cells),"[8]; 0.1 µg/ml, without S9 mix","11 ± 1.4 per 1,000"
same,% PI (Proliferative Index),[8]; [13],89.2%
same,MNC (micronucleated cells),[8]; [13],"11.5 ± 2.1 per 1,000"
same,% PI (Proliferative Index),"[8]; 0.25 µg/ml, without S9 mix",56.1%
same,MNC (micronucleated cells),"[8]; 0.25 µg/ml, without S9 mix","10 ± 1.4 per 1,000"
same,% PI (Proliferative Index),"[8]; 0.5 µg/ml, with UVA/visible Irradiation",TOXIC
same,% PI (Proliferative Index),"[8]; 0.5 µg/ml, without S9 mix",TOXIC
same,MNC (micronucleated cells),"[8]; 0.5 µg/ml, without S9 mix",TOXIC
same,phototoxicity (in words),[8]; UVA/visible light exposure,Slight phototoxicity
same,Solution state stability (concentration at which visible precipitation was observed),[9],excellent solubility and stability; also recorded: Stable

# From PMC12023841, “Unlocking the Gates: A Novel Diagnostic Molecule for Quantifying Efflux Levels in Gram‐Positive Bacteria” (Advanced Healthcare Materials, 2025)
